The target of test [1] is T1, Serine/threonine-protein kinase pim-1 (Homo sapiens, UniProt P11309). The test can be described thus: Inhibition of full-length human PIM1 using RSRHSSYPAGT as substrate assessed as residual kinase activity at 10 uM after 30 mins in presence of [gamma-33P]ATP.
Target sequence in this assay (P11309 whole entry, looked up): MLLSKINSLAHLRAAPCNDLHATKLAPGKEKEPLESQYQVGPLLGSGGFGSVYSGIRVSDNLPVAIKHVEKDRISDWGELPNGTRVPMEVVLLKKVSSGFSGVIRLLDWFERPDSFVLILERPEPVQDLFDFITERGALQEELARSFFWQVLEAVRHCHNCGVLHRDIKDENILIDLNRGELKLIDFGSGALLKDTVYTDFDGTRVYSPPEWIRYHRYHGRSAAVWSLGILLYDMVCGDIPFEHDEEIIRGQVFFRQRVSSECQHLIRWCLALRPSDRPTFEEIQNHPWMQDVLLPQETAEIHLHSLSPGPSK
Test [2] has as its target T1, Serine/threonine-protein kinase pim-1. As to the kind of experiment: Inhibition of full-length human PIM1 using RSRHSSYPAGT as substrate assessed as residual kinase activity at 1 uM after 30 mins in presence of [gamma-33P]ATP.
Target sequence in this assay (P11309 whole entry, looked up): as above
Test [3] concerns the target Serine/threonine-protein kinase pim-2 (Homo sapiens) (UniProt Q9P1W9). As to the kind of experiment: Inhibition of full-length human PIM2 using RSRHSSYPAGT as substrate assessed as residual kinase activity at 10 uM after 30 mins in presence of [gamma-33P]ATP.
Test [4] shares this target. The test can be described thus: Inhibition of full-length human PIM2 using RSRHSSYPAGT as substrate assessed as residual kinase activity at 1 uM after 30 mins in presence of [gamma-33P]ATP.
Test [5] addresses T2, Serine/threonine-protein kinase pim-3 (Homo sapiens, UniProt Q86V86). The test can be described thus: Inhibition of full-length human PIM3 using RSRHSSYPAGT as substrate assessed as residual kinase activity at 10 uM after 30 mins in presence of [gamma-33P]ATP.
Test [6] deals with T2, Serine/threonine-protein kinase pim-3. The test can be described thus: Inhibition of full-length human PIM3 using RSRHSSYPAGT as substrate assessed as residual kinase activity at 1 uM after 30 mins in presence of [gamma-33P]ATP.
The target in test [7] is T1, Serine/threonine-protein kinase pim-1. The test can be described thus: Inhibition of full-length human PIM1 using RSRHSSYPAGT as substrate assessed as residual kinase activity after 30 mins in presence of [gamma-33P]ATP.
Target sequence in this assay (P11309 whole entry): as the sequence (P11309 whole entry, looked up) above
Test [8] addresses T2, Serine/threonine-protein kinase pim-3. As to the kind of experiment: Inhibition of full-length human PIM3 using RSRHSSYPAGT as substrate assessed as residual kinase activity after 30 mins in presence of [gamma-33P]ATP.
Test [9] can be described thus: Antiproliferative activity against human PC3 cells at 10 uM after 72 hrs by MTS assay. Format: functional. The note with it: PC-3, 72 h.
The nature of test [10]: Antiproliferative activity against human PC3 cells after 72 hrs by MTS assay. The format is functional, cell-based. The note with it: PC-3, 72 h.
The next test has as its system LNCaP. The test can be described thus: Antiproliferative activity against human LNCAP cells at 10 uM after 72 hrs by MTS assay. The format is functional.

The structures appear in SMILES notation.

Serine/threonine-protein kinase pim-2 (Homo sapiens), sequence (Q9P1W9 whole entry, looked up): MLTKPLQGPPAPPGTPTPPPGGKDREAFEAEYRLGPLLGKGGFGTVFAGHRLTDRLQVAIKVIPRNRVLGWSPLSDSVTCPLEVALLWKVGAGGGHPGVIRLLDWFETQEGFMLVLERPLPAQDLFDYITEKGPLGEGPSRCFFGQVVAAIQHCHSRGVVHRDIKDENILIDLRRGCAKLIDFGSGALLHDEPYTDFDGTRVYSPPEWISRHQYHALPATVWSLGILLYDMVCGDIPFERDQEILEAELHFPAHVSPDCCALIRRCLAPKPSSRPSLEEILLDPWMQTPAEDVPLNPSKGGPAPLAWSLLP

Consider `COc1ccc2c(cnc3c(N)cc4[nH]ncc4c32)c1`, for which the Activity turned out to be 35% in [1]; 96% in [2]; 84% in test [3]; 100% in test [4]; 16.5% in [5]; 60% in test [6].

As for `Nc1cc2[nH]ncc2c2c1ncc1c(F)cccc12`, the Activity in [1] was 16%; in test [2] it was 90%; in test [3] it was 76%; in [4], 110%; in test [5], 7.9%; in test [6], 42%.

`COc1ccc2c(cnc3c([N+](=O)[O-])cc4[nH]ncc4c32)c1`: the Activity came to 15% in [1]; 20% in [2]; 55% in test [3]; 64% in [4]; 5.5% in test [5]; 8% in [6]. Moreover, the IC50 in test [7] worked out at 120 nM; in test [8], 140 nM; in [10], 1100 nM. Moreover, the inhibition at 10 µM was determined as 73% in test [9] and 40% with LNCaP.

Take `O=[N+]([O-])c1cc2[nH]ncc2c2c1ncc1ccc(Cl)cc12`: the Activity in test [1] amounted to 9%; in test [2], 28%; in [3], 47%; in test [4] it was 83%; in [5] it was 4%; in test [6] it was 8.9%. Moreover, the IC50 in [8] came to 200 nM; in [10], 3000 nM. Further, the inhibition at 10 µM stood at 75% in [9] and 31% in the test with LNCaP.

Take `O=[N+]([O-])c1cc2[nH]ncc2c2c1ncc1c(F)cccc12`: the Activity in test [1] came out at 19%; in test [2] it was 46%; in test [3], 66%; in test [4], 84%; in test [5], 6.7%; in [6], 14%. Moreover, the IC50 in [8] turned out to be 169 nM. Also, the values for the inhibition at 10 µM (in [9]; in the test with LNCaP) were 37% and 46%, respectively.

For the molecule `O=[N+]([O-])c1cc2[nH]ncc2c2c1ncc1cc3c(cc12)OCO3`, the Activity in test [1] came to 15.8%; in [2], 53%; in [3], 54%; in test [4], 92%; in test [5], 7%; in test [6], 18.9%. Also, the figures for the IC50 in test [8] and in test [10] were 400 nM and 5000 nM, respectively. Further, the inhibition at 10 µM in test [9] is 60%; in the test on LNCaP, 54%.

On to `Nc1cc2[nH]ncc2c2c1ncc1ccc(Cl)cc12`, for which the Activity in test [1] worked out at 18%; in [2] it was 88%; in test [3], 57%; in [4], 96%; in test [5], 10.5%; in test [6] it was 50%.

For `c1ccc2c(c1)cnc1ccc3[nH]ncc3c12`, the Activity was 11% in [1]; 44% in [2]; 38% in test [3]; 84.6% in test [4]; 47% in test [5]; 98% in [6].

Regarding `O=[N+]([O-])c1cc2[nH]ncc2c2c1ncc1ccccc12`, the Activity came to 2.2% in test [1]; 16% in test [2]; 8.1% in [3]; 46% in [4]; 0.9% in test [5]; 6% in test [6]. The values for the IC50 in test [7], in test [8] and in [10] were 70 nM, 20 nM and 2460 nM, respectively. Besides, the inhibition at 10 µM came to 68% in test [9] and 54% in the test on LNCaP.

Turning to `Nc1cc2[nH]ncc2c2c1ncc1ccccc12`, the Activity was 17% in test [1]; 55% in [2]; 43% in test [3]; 86% in test [4]; 24% in test [5]; 55% in [6].

These data come from ChEMBL document CHEMBL3352653, “Synthesis of pyrazolo[4,3-a]phenanthridines, a new scaffold for Pim kinase inhibition” (Bioorg Med Chem, 2014).
